Experimental data: patent US9205179B2, “Broad-spectrum antimicrobial compositions based on combinations of taurolidine and protamine and medical devices containing such compositions” (Ethicon, Inc., priority 2011, dated 2015)

Columns and labels:
[1] = tested on: Staphylococcus aureus ACTT 6538; experiment: In vitro bacteria attachment assay on coated mesh discs in SST medium; format: cell-based; conditions: serum containing media; same TU dosage alone or combined with PS
Protocol: (§1) Taurolidine was dissolved at 4% wt./vol. in a 70% acetone 30% water vol./vol. mixture. Protamine sulfate was dissolved at 10% wt./vol. in water under warming. 50 μl of the taurolidine (TU) solution and 20 μl of the protamine (PS) solution were applied to each mesh disk using a pipette and allowed to dry at 50° C. until the majority of the liquid was gone and then stored under vacuum. First the taurolidine solution was applied, and then immediately thereafter the protamine sulfate solution was applied. The in vitro bacteria attachment assay was developed for its utility of indicating biofilm prevention potential of prototype mesh. Since bacterial attachment to a surface is the first step of biofilm formation, a surface treatment that inhibits bacterial attachment would reduce the chance of subsequent biofilm formation. The assay was conducted in SST (Serum Saline TSB) medium to mimic in vivo and clinical conditions. The formulation of SST is Tryptic Soy Broth (TSB):serum:saline in the ratio of 1:2:7. Each test article was incubated in SST inoculated with Staphylococcus aureus ACTT 6538 or Escherichia coli ATCC 25922 at about 6 Log CFU/ml. […] Viable bacteria populations were measured by plate count on TSA (Tryptic Soy agar) medium contain neutralizing agents. […]

[2] = tested on: Escherichia coli ATCC 25922; experiment: as above; format: cell-based; conditions: serum containing media; same TU dosage alone or combined with PS
Protocol: as §1

[3] = cited from earlier work

## O=S1(=O)CCN(CN2CCS(=O)(=O)NC2)CN1 [TU, bis(1,1-dioxoperhydro-1,2,4-thiadiazinyl-4)-methane]
[1]
  Inhibition of attachment by S. aureus to treated mesh surface: less inhibition than the combination
[2]
  Inhibition of attachment by E. coli to treated mesh surface: less inhibition than the combination
[3]; cumulative dose, up to and exceeding
  Cumulative dose shown to be safe and well tolerated: exceeding 300 g
[3]; systemic dose
  Systemic dose shown to be safe and well tolerated: exceeding 40 g/day
